Laboratory results as given in patent publication US9980943B2, “Methods of treating muscular dystrophy” (BOARD OF REGENTS OF THE NEVADA SYSTEM OF HIGHER EDUCATION, …, priority 2013, dated 2018).

Assays:
Assay type in all cases: cell-based, mouse
[1] = test system: β-galactosidase in CMV-LacZ C2C12 myotubes; assay: CMV-LacZ secondary screen in C2C12 myotubes (β-Gal stabilizing assay); conditions: C2C12 CMV-LacZ myotubes, fold relative to DMSO
In short: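 First, C2C12 myoblasts were transfected with a linearized CMV-LACZ vector and clonal lines selected by FDG β-gal assay. Then cells were exposed to compounds at 0.5, 1, 5, 10, 20 and 40 μM in 96-well format, two replicates each, and β-gal measured.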

[2] = test system: α7 integrin (LacZ reporter in α7+/LacZ myotubes); assay: Myotube α7 integrin FDG assay (Burkin assay in myotubes, 96-well); conditions: myotubes
[3] = test system: β-galactosidase in CMV-LacZ C2C12 myoblasts; assay: CMV-LacZ secondary screen in C2C12 myoblasts (β-Gal stabilizing assay); conditions: CMV-LacZ C2C12 myoblasts
In short: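 A secondary screen identifies compounds that stabilize β-gal independently of the native promoter, using CMV-LacZ C2C12 cells. Curves span 0.5–40 μM at six levels, in duplicate.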

[4] = test system: α7 integrin (LacZ reporter in α7βgal+/− myoblasts); assay: Myoblast α7+/LacZ integrin FDG assay (Burkin assay in myoblasts, 96-well); conditions: α7+/LacZ myoblasts, 96-well

SMILES | CMV-LACZ in Myotubes, signal relative to DMSO ([1]; 0.5 uM) | CMV-LACZ in Myotubes, signal relative to DMSO ([1]; 1 uM) | CMV-LACZ in Myotubes, signal relative to DMSO ([1]; 5 uM) | CMV-LACZ in Myotubes, signal relative to DMSO ([1]; 10 uM) | CMV-LACZ in Myotubes, signal relative to DMSO ([1]; 20 uM) | CMV-LACZ in Myotubes, signal relative to DMSO ([1]; 40 uM) | Burkin Assay in Myotubes, α7 integrin LacZ reporter signal relative to DMSO ([2]; 0.5 uM) | Burkin Assay in Myotubes, α7 integrin LacZ reporter signal relative to DMSO ([2]; 1 uM) | Burkin Assay in Myotubes, α7 integrin LacZ reporter signal relative to DMSO ([2]; 5 uM) | Burkin Assay in Myotubes, α7 integrin LacZ reporter signal relative to DMSO ([2]; 10 uM) | Burkin Assay in Myotubes, α7 integrin LacZ reporter signal relative to DMSO ([2]; 20 uM) | Burkin Assay in Myotubes, α7 integrin LacZ reporter signal relative to DMSO ([2]; 40 uM) | CMV-LACZ in Myoblasts (β-galactosidase activity relative to DMSO) ([3]; 0.5 uM) | CMV-LACZ in Myoblasts (β-galactosidase activity relative to DMSO) ([3]; 1 uM) | CMV-LACZ in Myoblasts (β-galactosidase activity relative to DMSO) ([3]; 5 uM) | CMV-LACZ in Myoblasts (β-galactosidase activity relative to DMSO) ([3]; 10 uM) | CMV-LACZ in Myoblasts (β-galactosidase activity relative to DMSO) ([3]; 20 uM) | CMV-LACZ in Myoblasts (β-galactosidase activity relative to DMSO) ([3]; 40 uM) | Burkin Assay in Myoblasts, signal relative to DMSO ([4]; 0.5 uM) | Burkin Assay in Myoblasts, signal relative to DMSO ([4]; 1 uM) | other results
CCCS(=O)(=O)c1nc(S(=O)(=O)c2ccc(C)cc2)c(N2CCCC2)s1 [MLS000113985-01] | 1.0629 | 1.0638 | 1.0031 | 1.0241 | 1.0541 | 1.0482 | 0.9882 | 1.037 | 0.9919 | 0.9925 | 0.7655 | 0.6679 | 0.9809 | 1.0049 | 1.0836 | 0.9187 | 0.2126 | 0.1841 | 1.065 | 1.018 | Burkin Assay in Myoblasts, signal relative to DMSO ([4]; 5 uM): 0.7898; Burkin Assay in Myoblasts, signal relative to DMSO ([4]; 10 uM): 0.4804; Burkin Assay in Myoblasts, signal relative to DMSO ([4]; 20 uM): 0.1779; Burkin Assay in Myoblasts, signal relative to DMSO ([4]; 40 uM): 0.122
Cc1ccccc1S(=O)(=O)N1C[C@H]2CON(C)[C@H]2C[C@H]1c1cccc(-c2ccccc2)c1 [MLS002694363-01] | 1.0695 | 1.1800 | 1.1420 | 0.9775 | 0.9870 | 0.7460 | 0.9909 | 1.01 | 0.9178 | 0.8787 | 0.6694 | 0.4108 | 1.1110 | 1.2840 | 0.7616 | 1.0392 | 1.0123 | 0.5698 | 1.062 | 1.061 | Burkin Assay in Myoblasts, signal relative to DMSO ([4]; 5 uM): 1.045; Burkin Assay in Myoblasts, signal relative to DMSO ([4]; 10 uM): 1.09; Burkin Assay in Myoblasts, signal relative to DMSO ([4]; 20 uM): 0.7581; Burkin Assay in Myoblasts, signal relative to DMSO ([4]; 40 uM): 0.7066
